Laboratory results reported in US20100210611A1, “COMBINATION THERAPY” (priority 2007, published 2010).
“And” between values parts separate entries of the source, which are not always exact repeats. Equal entries are not always repeated.

Assays:
[1] = Dose uniformity, Dosage Unit Sampling Apparatus (DUSA), USP <601>; type: physicochemical; conditions: Spinhaler; for Total recovered / amount in Device + Capsule: listed as MON; for amount in Device + Capsule: nominal 1000 μg MON, 400 μg MOM
Protocol: Dose uniformity was determined using Apparatus B (Dosage Unit Sampling Apparatus—DUSA) at a flow rate of 100 L/min (test described in United States Pharmacopoeia (USP) 27 Chapter <601>). The USP recommends selecting a flow rate that creates a pressure drop of 4 kPa across the inhaler. With the Spinhaler, a 4 kPa pressure drop could not be achieved even at the maximum flow rate of 100 L/min. Based on the recommendations of Byron, et al., a flow rate of 100 L/min was selected since the Spinhaler is a low resistance device. See Michael Hindle and Peter R. Byron, “Dose emissions from marketed dry powder inhalers”, International Journal of Pharmaceutics 116 (1995) 169-177. The test was run for 2.4 seconds in order to pull 4 L of air. After a shot had been delivered, all pieces of the DUSA including the mouthpiece adapter were rinsed with solvent. To determine the amount of drug retained in the inhaler, all pieces of the inhaler were rinsed with solvent including the interior of the capsule. The samples were then assayed using the UV-Vis spectrophotometer.
Shot weight was obtained by measuring the weight loss due to the actuation of the device. The device was tared, a “shot” was wasted in the DUSA and the device was re-weighed to obtain the delivered shot weight. Dose and shot weight were deemed acceptable if they were within 75% to 125% of the theoretical values (USP <601>).
(§1) Dose Uniformity (DU) was performed according to USP Chapter <601> by using DUSA Apparatus B with the Spinhaler® device which is analogous to that described in section Dose Uniformity for Example 1. However, the HPLC was used to analyze the content of the drugs as described in the Blend Uniformity in this example.
as §1, with “Uniformity” for “Uniformity (DU)”, “device and in a manner” for “device which is”, “Uniformity in” for “Uniformity for”, “Example 4, except” for “Example 1. However,”

[2] = Blend uniformity (individual capsule assay); type: physicochemical; conditions: HPLC, Mean ± RSD
Protocol: To assess blend uniformity, capsules from each blend were opened and rinsed with methanol. The solution was sonicated for 5 minutes at room temperature, centrifuged at 3000 rpm for 15 minutes then assayed using a UV-VIS spectrophotometer at a wavelength of 346 nm. […]
To assess blend uniformity, the blend was sampled randomly from the glass vial. The drugs were extracted analogous to that described in section Blend Uniformity for Example 1. However, the content of montelukast acid and mometasone furoate were analyzed by High Performance Liquid Chromatography (HPLC) employing a phenyl column with a controlled temperature of 50° C., a mixture of water containing 0.2% trifluoroacetic acid (TFA) and acetonitrile containing 0.2% TFA (53:47) as the mobile phase at a flow rate 2 ml/min and UV-detection at 248 nm.
The blend uniformity was assessed in a manner analogous to that described in the Blend Uniformity section in Example 4, except the content of montelukast acid and ciclesonide were analyzed by High Performance Liquid Chromatography (HPLC) employing a phenyl column with a controlled temperature of 50° C., a mixture of water containing 0.2% trifluoroacetic acid (TFA) and acetonitrile containing 0.2% TFA (40:60) at a flow rate 2 ml/min and UV-detection at 248 nm.

[3] = tested on: Ascaris challenge in allergic sheep; test: Allergic sheep model: EAR, LAR and AHR response to Ascaris challenge; type: in vivo; conditions: for AHR (%) inhibition / EAR (%) Inhibition / LAR (%) inhibition: single dose 30 minutes before Ascaris challenge
Protocol: The allergic sheep model was used to test the effect of inhaled montelukast acid against early asthmatic response (EAR), late asthmatic response (LAR) and airway hyper-reactivity (AHR) response to Ascaris challenge in allergic sheep. The compound was administered directly into the lungs using the Spinhaler DPI that was attached directly to an indwelling endotracheal tube. Capsules used in the Spinhaler contained a micronized blend of 20% drug/80% lactose, corresponding to approx. 5 mg of the active compound. The compound was administered as a single dose 30 minutes before Ascaris challenge. To optimize delivery, each Spinhaler actuation was synchronized with a series of aspiratory cycles.
Doses for inhalation were selected based on total IV doses administered in sheep studies that had been conducted. Administration of 3 or 9 capsules should achieve a total inhaled dose of approximately 0.1 mg/kg and 0.3 mg/kg, respectively. The purported dose delivered is an estimate based on an experimentally determined fine particle fraction efficiency of 30%. Plasma drug levels were measured at various time points throughout the study.
Initial experiments (n=2) were performed with 0.1 mg/kg of montelukast acid. […] The second set of experiments (n=4) was performed with 0.3 mg/kg of montelukast acid.

[4] = Moisture and light sensitivity; type: physicochemical
[5] = Example 4 blend, flow 61.5 L/min for 3.9 sec
[6] = Example 4 blend, flow 62.3 L/min for 3.9 sec
[7] = Example 4 blend, flow 62.8 L/min for 3.8 sec
[8] = Approx. 0.1 mg/kg (3 capsules) inhaled via Spinhaler, n=2
[9] = Approx. 0.3 mg/kg (9 capsules) inhaled via Spinhaler, n=4

SMILES: CC(C)(O)c1ccccc1CC[C@@H](SCC1(CC(=O)O)CC1)c1cccc(/C=C/c2ccc3ccc(Cl)cc3n2)c1 [Montelukast Acid, montelukast acid]
- DU based on nominal dose, % (Device + Capsule) ([1]; Example 4 blend): *46.6%
- DU based on nominal dose, % (printed in Adapter + Filter column) ([1]; Example 4 blend): 49.3%
- DU based on total recovered, % (Device + Capsule) ([1]; Example 4 blend): **48.6%
- DU based on total recovered, % (printed in Adapter + Filter column) ([1]; Example 4 blend): 51.4%
- Total recovered [1, 5]: 952.06 µg and 949.00 µg and 958.48 µg
- Total recovered [1, 6]: 983.22 µg and 979.15 µg
- Total recovered [1, 7]: 937.91 µg and 949.52 µg
- amount in Device + Capsule [1, 5]: 465.70 µg and 463.98 µg and 465.53 µg
- amount in Device + Capsule [1, 6]: 462.40 µg and 459.39 µg
- amount in Device + Capsule [1, 7]: 468.24 µg and 473.48 µg
- DU based on nominal dose, % (Device + Capsule) ([1]; Example 5 blend): *44.5%
- DU based on nominal dose, % (printed in Adapter + Filter column) ([1]; Example 5 blend): 47.8%
- DU based on total recovered, % (Device + Capsule) ([1]; Example 5 blend): **48.2%
- DU based on total recovered, % (printed in Adapter + Filter column) ([1]; Example 5 blend): 51.8%
- Amount Recovered (μg/Capsule) ([2]; Example 4 blend (montelukast acid 4%, mometasone furoate 1.6%)): 940.4 µg and 907.0 µg and 953.9 µg
- Amount Recovered (μg/Capsule) ([2]; Example 4 blend (montelukast acid 4%, mometasone furoate 1.6%), mean): 933.8 ± 2.6 µg
- Amount Recovered, % ([2]; Example 4 blend): 91.4% and 93.0% and 93.9%
- Amount Recovered, % ([2]; Example 4 blend, mean): 92.8 ± 1.4%
- Amount Recovered (μg/Capsule) ([2]; Example 5 blend (montelukast acid 4%, ciclesonide 0.64%)): 943.3 µg and 928.8 µg and 997.5 µg
- Amount Recovered (μg/Capsule) ([2]; Example 5 blend (montelukast acid 4%, ciclesonide 0.64%), mean of three capsules): 956.6 ± 3.4 µg
- Amount Recovered, % ([2]; Example 5 blend): 94.3% and 92.9% and 99.8%
- Amount Recovered, % ([2]; Example 5 blend, mean of three capsules): 95.7 ± 3.4%
- inhibition of EAR, LAR and AHR (in words) ([3]; 0.1 mg/kg inhaled, n=2): partial inhibition of the LAR and AHR but not the EAR
- inhibition of EAR, LAR and AHR (in words) ([3]; 0.3 mg/kg inhaled, n=4): Marked inhibition of all three phases of the response
- AHR (%) inhibition [3, 8]: 60%
- EAR (%) Inhibition [3, 8]: 7%
- LAR (%) inhibition [3, 8]: 42%
- AHR (%) inhibition [3, 9]: 76%
- EAR (%) Inhibition [3, 9]: 47%
- LAR (%) inhibition [3, 9]: 79%
- moisture and light sensitivity [4]: moisture sensitive and photosensitive
